ChEMBL document CHEMBL5143508, “Design, synthesis and biological evaluation of novel o-aminobenzamide derivatives as potential anti-gastric cancer agents in vitro and in vivo” (Eur J Med Chem, 2022)
“And” between values parts separate entries of the source, which are not always exact repeats. Equal entries are not always repeated.

Legend:
SGC-7901 = assay: cells; assay type: functional, cell-based; conditions: Homo sapiens, SGC-7901, 72 h
Description: Cytotoxicity against human SGC-7901 cells assessed as inhibition of cell growth incubated for 72 hrs by MTT assay

AGS = assay: cells; assay type: functional, cell-based; conditions: Homo sapiens, 72 h
Description: Cytotoxicity against human AGS cells assessed as inhibition of cell growth incubated for 72 hrs by MTT assay

BGC-823 = assay: cells; assay type: functional, cell-based; conditions: Homo sapiens, BGC-823, 72 h
Description: Cytotoxicity against human BGC-823 cells assessed as inhibition of cell growth incubated for 72 hrs by MTT assay

MGC-803 = assay: cells; assay type: functional, cell-based; conditions: Homo sapiens, MGC-803, 72 h
Description: Cytotoxicity against human MGC-803 cells assessed as inhibition of cell growth incubated for 72 hrs by MTT assay

HGC-27 [1] = assay: cells; assay type: functional, cell-based; conditions: Homo sapiens, HGC-27, 72 h
Description: Cytotoxicity against human HGC-27 cells assessed as inhibition of cell growth incubated for 72 hrs by MTT assay

in vitro [2] = conditions: human, GES1 cells
Description: Cytotoxicity against human GES1 cells assessed as inhibition of cell growth incubated for 72 hrs by MTT assay

in vitro [3] = conditions: human, WI-38 cells
Description: Cytotoxicity against human WI-38 cells assessed as inhibition of cell growth incubated for 72 hrs by MTT assay

HGC-27 [4] = assay: Antitumor activity against human HGC-27 cells xenografted in BALB/c mouse assessed as tumor growth inhibition at 150 mg/kg, po bid administered for 19 days; assay type: functional; conditions: HGC-27, 456 h, time 19 day, read-out: TGI
[5] = Toxicity in BALB/c mouse xenografted with human HGC-27 cells assessed as lymphocyte level at 150 mg/kg, po bid for 19 days; assay type: organism-based; conditions: in vivo, 456 h, time 19 day
[6] = Toxicity in BALB/c mouse xenografted with human HGC-27 cells assessed as monocyte level at 150 mg/kg, po bid for 19 days; assay type: organism-based; conditions: in vivo, 456 h, time 19 day
[7] = Toxicity in BALB/c mouse xenografted with human HGC-27 cells assessed as granulocyte level at 150 mg/kg, po bid for 19 days; assay type: organism-based; conditions: in vivo, 456 h, time 19 day
[8] = Toxicity in BALB/c mouse xenografted with human HGC-27 cells assessed as RBC level at 150 mg/kg, po bid for 19 days; assay type: organism-based, Erythrocyte; conditions: in vivo, 456 h, time 19 day
[9] = Toxicity in BALB/c mouse xenografted with human HGC-27 cells assessed as hematocrit level at 150 mg/kg, po bid for 19 days; assay type: organism-based; conditions: in vivo, 456 h, time 19 day
[10] = Toxicity in BALB/c mouse xenografted with human HGC-27 cells assessed as mean corpuscular volume at 150 mg/kg, po bid for 19 days; assay type: organism-based; conditions: in vivo, 456 h, time 19 day
[11] = Toxicity in BALB/c mouse xenografted with human HGC-27 cells assessed as red blood cell distribution width at 150 mg/kg, po bid for 19 days; assay type: organism-based; conditions: in vivo, 456 h, time 19 day
[12] = Toxicity in BALB/c mouse xenografted with human HGC-27 cells assessed as platelet level at 150 mg/kg, po bid for 19 days; assay type: organism-based; conditions: in vivo, 456 h, time 19 day
[13] = Toxicity in BALB/c mouse xenografted with human HGC-27 cells assessed as mean platelet volume at 150 mg/kg, po bid for 19 days; assay type: organism-based; conditions: in vivo, 456 h, time 19 day
[14] = Toxicity in BALB/c mouse xenografted with human HGC-27 cells assessed as platelet distribution width at 150 mg/kg, po bid for 19 days; assay type: organism-based; conditions: in vivo, 456 h, time 19 day
HGC-27 [15] = assay: Antiproliferative activity against human HGC-27 cells measured after 24 hrs by […]; assay type: functional, cell-based; conditions: HGC-27, 24 h

Structure (SMILES) | IC50 (SGC-7901) | IC50 (AGS) | IC50 (BGC-823) | IC50 (MGC-803) | IC50 (HGC-27 [1]) | IC50 at 72 h (in vitro [2]) | IC50 at 72 h (in vitro [3]) | also measured
O=C(NCc1ccc(NC(=O)c2cccc(F)c2N2CCCC2)cc1)OCc1cccnc1 | > 100 µM | > 100 µM | > 100 µM | > 100 µM | 2.02 µM | > 100 µM | > 100 µM | –
Cc1ccc(N2CCCC2)c(C(=O)Nc2ccc(CNC(=O)OCc3cccnc3)cc2)c1 | 65.3 µM | 24.7 µM | > 100 µM | 19.1 µM | 1.65 µM | > 100 µM | 40.6 µM | –
O=c1[nH]cc(F)c(=O)[nH]1 [FLUOROURACIL] | 69.8 µM | 23.2 µM | 14 µM | 62.5 µM | 27.5 µM | 38.5 µM | – | –
CCCCCOC(=O)Nc1nc(=O)n([C@@H]2O[C@H](C)[C@@H](O)[C@H]2O)cc1F [CAPECITABINE] | – | – | – | – | – | – | – | inhibition in vivo at 150 mg/kg (HGC-27 [4]): 29.9%; Activity [5]: 6.1 10^9/L and 7.45%; Activity [6]: 1.75 10^9/L and 2.18%; Activity [7]: 73.83 10^9/L and 90.38%; Activity [8]: 10.26 10^12/L; Activity [9]: 55.25%; Activity [10]: 53.73 fL; Activity [11]: 15.63%; Activity [12]: 799 10^9/L; Activity [13]: 6.95 fL; Activity [14]: 17.93
O=C(NCc1ccc(NC(=O)c2cc(Br)ccc2N2CCCC2)cc1)OCc1cccnc1 | > 100 µM | > 100 µM | > 100 µM | 45.7 µM | 0.64 µM | > 100 µM | > 100 µM | –
Nc1ccccc1NC(=O)c1ccc(CNC(=O)OCc2cccnc2)cc1 [ENTINOSTAT] | > 200 µM | 26.7 µM | 27 µM | 58.6 µM | 18.5 µM | 60.2 µM | – | –
COc1ccc(N2CCCC2)c(C(=O)Nc2ccc(CNC(=O)OCc3cccnc3)cc2)c1 | 47.2 µM | 25.6 µM | > 100 µM | 85.7 µM | 138 µM | > 100 µM | 35.6 µM | –
O=C(NCc1ccc(NC(=O)c2ccc(F)cc2N2CCCC2)cc1)OCc1cccnc1 | 56.2 µM | > 100 µM | 74.5 µM | 52.1 µM | 1.84 µM | > 100 µM | > 100 µM | –
O=C(NCc1ccc(NC(=O)c2cc(-c3ccccc3)ccc2N2CCCC2)cc1)OCc1cccnc1 | > 100 µM | > 100 µM | > 100 µM | 10.5 µM | 4.34 µM | > 100 µM | > 100 µM | –
Cc1cccc(C(=O)Nc2ccc(CNC(=O)OCc3cccnc3)cc2)c1N1CCCC1 | > 100 µM | > 100 µM | > 100 µM | > 100 µM | 1.03 µM | > 100 µM | > 100 µM | –
O=C(NCc1ccc(NC(=O)c2cc(C(F)(F)F)ccc2N2CCCC2)cc1)OCc1cccnc1 | > 100 µM | > 100 µM | > 100 µM | 42.1 µM | 0.79 µM | > 100 µM | > 100 µM | –
Cc1ccc(C(=O)Nc2ccc(CNC(=O)OCc3cccnc3)cc2)c(N2CCCC2)c1 | 75.2 µM | > 100 µM | > 100 µM | > 100 µM | 1.87 µM | > 100 µM | > 100 µM | –
C#Cc1ccc(N2CCCC2)c(C(=O)Nc2ccc(CNC(=O)OCc3cccnc3)cc2)c1 | – | – | – | – | – | – | – | IC50 (HGC-27 [15]): 2.48 µM
O=C(NCc1ccc(NC(=O)c2cc(Cl)ccc2N2CCCC2)cc1)OCc1cccnc1 | > 100 µM | > 100 µM | > 100 µM | 55.5 µM | 0.75 µM | > 100 µM | > 100 µM | –
C#Cc1cccc(C(=O)Nc2ccc(CNC(=O)OCc3cccnc3)cc2)c1 | – | – | – | – | – | – | – | IC50 (HGC-27 [15]): > 100 µM
